Consider 6 compounds from patent publication US4614807A, “6,7-dihalomelatonins” (Eli Lilly and Company, priority 1984, dated 1986).

Where two headings read alike, the source gives them in different places.

Assay [1] has as its system ovulation. Nature of the assay: inhibition of ovulation, test compound given orally on the day of proestrus; absence of ova in oviduct. The format is in vivo. Particulars: oral, rat. On the procedure:
The compounds of the invention are ovulation inhibitors, with a longer duration of action than the monochloromelatonins. The degree of ovulation inhibitory activity was determined according to the following protocol.
Adult female rats with regular estrus cycles of four days each are employed. The estrus cycle consists of 2 days of diestrus followed by a day of proestrus and then a day of estrus. […] On the afternoon of proestrus, luteinizing hormone (LH) is released into the blood by the pituitary gland. The LH travels to the ovary where it induces ovulation, resulting in the presence of eggs in the oviduct on the day of estrus.
The test compound is administered orally at predetermined times on the day of proestrus. The rat is sacrificed on the following day (estrus). The oviduct is removed and examined microscopically for the presence of ova.
In the Table, column 1 gives the name of the compound, column 2 the time of administration and column 3 the percent inhibition of ovulation.

In assay [2] the test system is ovulation. Particulars: in vivo; cited from earlier work.
Assay [3] deals with estrous phase of the estrous cycle and ovulation. Particulars: mice; cited from earlier work.
The test system is the same in assay [4]. Particulars: rats; cited from earlier work.
Setting [5] is: time of administration 10:00 a.m.

In the case of `COc1cc2c(CCNC(C)=O)c[nH]c2cc1Cl` [6-chloromelatonin], the “Percent Inhibition of ovulation” value in assay [1] (setting [5]) is 0%. The ovulation blocking activity entry in assay [2] is “increased ovulation blocking activity”.
Take `COc1cc2c(CCNC(C)=O)c[nH]c2c(Cl)c1Cl` [6,7-dichloromelatonin, N-acetyl-5-methoxy-6,7-dichlorotryptamine]: the “Percent Inhibition of ovulation” value in assay [1] (setting [5]) came to 100%.
`COc1cc2c(CCNC(C)=O)c[nH]c2cc1F` [6-fluoromelatonin]: in assay [2], the ovulation blocking activity entry is recorded as “increased ovulation blocking activity”.
As for `COc1cc2c(CC(C)NC(C)=O)c[nH]c2cc1Cl` (stereo not drawn) [α-methyl-6-chloromelatonin], the “effect of α-methyl substitution on ovulation-blocking activity” value in assay [2] was “no significant effect”.
Regarding `COc1ccc2[nH]cc(CCNC(C)=O)c2c1` [melatonin, N-[2-(5-methoxy-3-indolyl)ethyl]acetamide], in assay [3], the “inhibition of estrous phase of the estrous cycle” value is given as “inhibited” and the inhibition of ovulation entry is “inhibited”. Also, in assay [4], the “inhibition of estrous phase of the estrous cycle” value was “inhibited” and the inhibition of ovulation entry is “inhibited”.
With `COc1cc2c(CCNC(C)=O)c(C)[nH]c2c(Cl)c1Cl` [2-methyl-6,7-dichloromelatonin], in assay [1] (time of administration 8:00 a.m.), the “Percent Inhibition of ovulation” value came to 100%.
